Measurements taken from patent US20100226597A1, “BORTEZOMIB AND PROCESS FOR PRODUCING SAME” (DR. REDDY'S LABORATORIES LIMITED, priority 2007, published 2010).
Entries after “also recorded” stand apart in the source; their conditions may differ.

Tests used:
[1] = Stability study of Bortezomib stored under general storage conditions (sealed polymeric bag, 25° C. and 60% RH), purity by HPLC; assay type: physicochemical
Description: (§1) HPLC measurements of Bortezomib samples for chemical purity were performed using Waters system, equipped with Waters symmetry shield RP-18, 250X4.6 mm ID, 5 μm, particle size and a UV detector operated on 270 nm. Analyses were performed using the following mobile phase, at flow rate of 1.0 ml/minute, run time 55 minutes. Mobile phase A: Mix 700 ml water, 300 ml Acetonitrile and 1 ml formic acid, filter and degas. Mobile phase B: Mix 800 ml Acetonitrile, 200 ml water and 1 ml formic acid, filter and degas. Elution: Gradient program

[2] = Stability study of aqueous solution of Bortezomib in basic medium (pH ~10.5), purity by HPLC
Description: A small quantity was taken from solution after 1 hours, 2 hours and 3 hours and the purity was checked by HPLC and compared to the original HPLC chromatogram of initial sample (immediately after adjusting the pH). The purity of each sample was obtained as % area by the HPLC chromatogram and compared to the initial purity value.
as §1

[3] = Stability study of Bortezomib in the exemplary storage system of the invention (two polybags with external desiccant), purity by HPLC; conditions: for Initial purity: % area by HPLC
Description: Two different samples of Bortezomib were stored at a storage condition of 2-8° C. and 25° C., 60% relative humidity (RH) in a storage system (packed in one Polybags having a thickness about 0.10 mm followed by repacking in another polybag having thickness of about 0.10 mm and containing external desiccant). A small quantity was taken from each sample after 15 days, 1 month (30th day), 2 months (60th day) and 3 months (90th day) and the purity was checked by HPLC and compared to the original HPLC chromatogram of each sample (before starting the storage period). The chemical purity of each sample was obtained as % area by the HPLC chromatogram and compared to the initial purity value (before starting the storage period).
as §1

[4] = 7th day, general storage conditions
[5] = 15th day, general storage conditions
[6] = 30th day, general storage conditions
[7] = initial, general storage conditions
[8] = after 1 hour, aqueous solution, pH ~10.5, 25 to 35° C.
[9] = after 2 hours, aqueous solution, pH ~10.5, 25 to 35° C.
[10] = after 3 hours, aqueous solution, pH ~10.5, 25 to 35° C.
[11] = initial, aqueous solution, pH ~10.5, 25 to 35° C.
[12] = stored at 2-8° C. in packaging of the invention, sample from methanol/water (Form A)
[13] = stored at 25° C. and 60% RH in packaging of the invention, sample from ethylacetate

Which “Impurity-a content on 7th day” value [1, 4] does the source give for `CC(C)C[C@H](NC(=O)[C@H](Cc1ccccc1)NC(=O)c1cnccn1)B(O)O` [Bortezomib, [(1R)-3-methyl-1-[[(2S)-1-oxo-3-phenyl-2-[(pyrazinylcarbonyl)amino]propyl]amino]butyl]boronic acid] here?
Its value is 0.06%.

What about the “Impurity-b (RR and SS diastereomers) content on 7th day” value [1, 4] of the same compound?
Its value is 0.33%.

What about the “Bortezomib purity by HPLC, Purity on 7th day” value ([1]; 7th day, general storage conditions, sample from ethylacetate) of the same compound?
The value was 99.34%.

And the “Impurity-a content on 15th day” value [1, 5]?
The value was 0.08%.

What about the “Impurity-b (RR and SS diastereomers) content on 15th day” value [1, 5] of the same compound?
Its value is 0.35%.

What about the “Bortezomib purity by HPLC, Purity on 15th day” value ([1]; 15th day, general storage conditions, sample from ethylacetate) of the same compound?
The value was 98.92%.

What about the “Impurity-a content on 30th day” value [1, 6] of the same compound?
The value was 0.18%.

What about the “Impurity-b (RR and SS diastereomers) content on 30th day” value [1, 6] of the same compound?
Its value is 0.39%.

What about the “Bortezomib purity by HPLC, Purity on 30th day” value ([1]; 30th day, general storage conditions, sample from ethylacetate) of the same compound?
Its value is 97.22%.

And the “Impurity-a content, Initial” value [1, 7]?
The value was 0.06%.

What about the “Impurity-b (RR and SS diastereomers) content, Initial” value [1, 7] of the same compound?
Its value is 0.36%.

And the “Bortezomib purity by HPLC, Initial purity” value ([1]; initial, general storage conditions, sample from ethylacetate)?
The value was 99.49%.

What about the “Storage stability in words” value ([1]; sealed polymeric bag without desiccants, normal temperature) of the same compound?
The value was “unstable; also recorded: substantial degradation of product”.

What about the “Chemical Purity by HPLC, After 1 hour” value [2, 8] of the same compound?
Its value is 98.24%.

What about the “Impurity-a content, After 1 hour” value [2, 8] of the same compound?
The value was 0.8924%.

What about the “Impurity-b (RR and SS diastereomers) content, After 1 hour” value [2, 8] of the same compound?
The value was 0.4005%.

And the “Chemical Purity by HPLC, After 2 hour” value [2, 9]?
The value was 98.01%.

What about the “Impurity-a content, After 2 hour” value [2, 9] of the same compound?
The value was 0.9587%.

And the “Impurity-b (RR and SS diastereomers) content, After 2 hour” value [2, 9]?
Its value is 0.4746%.

And the “Chemical Purity by HPLC, After 3 hours” value [2, 10]?
Its value is 97.77%.

What about the “Impurity-a content, After 3 hours” value [2, 10] of the same compound?
The value was 1.0229%.

What about the “Impurity-b (RR and SS diastereomers) content, After 3 hours” value [2, 10] of the same compound?
The value was 0.5418%.

What about the “Stability in aqueous basic solution in words” value ([2]; aqueous solution maintained under stirring in a basic medium) of the same compound?
The value was “decrease the purity; also recorded: purity of the compound decreased continually”.

And the “Chemical Purity by HPLC, Initial” value ([2]; initial (immediately after adjusting the pH), aqueous solution, pH ~10.5 (2N NaOH), 25 to 35° C.)?
The value was 98.61%.

And the “Impurity-a content, Initial” value [2, 11]?
Its value is 0.7899%.

What about the “Impurity-b (RR and SS diastereomers) content, Initial” value [2, 11] of the same compound?
Its value is 0.2991%.

And the “Purity on 15th day” value [3, 12]?
The value was 99.59%.

What about the “Purity on 15th day” value [3, 13] of the same compound?
Its value is 99.56%.

What about the “Purity on 30th day” value [3, 12] of the same compound?
Its value is 99.59%.

And the “Purity on 30th day” value [3, 13]?
Its value is 99.60%.

What about the “Purity on 60th day” value [3, 12] of the same compound?
Its value is 99.65%.

And the “Purity on 60th day” value [3, 13]?
Its value is 99.63%.

And the “Purity on 90th day” value [3, 12]?
The value was 99.66%.

And the “Purity on 90th day” value [3, 13]?
Its value is 99.54%.

And the Initial purity [3, 12]?
The Initial purity was 99.60%.

And the Initial purity [3, 13]?
The Initial purity was 99.58%.

What about the “Storage stability in words” value ([3]; packaging conditions of the invention, prolonged storage periods) of the same compound?
Its value is “can be stabilized while retaining its purity content over prolonged storage periods”.
